Source: patent US20240010683A1, “Peptide Inhibitors of Human Mitochondrial Fission Protein 1 and Methods of Use” (The Medical College of Wisconsin, Inc., priority 2020, published 2024)
“Also recorded” adds a separate entry of the source.

Tests used:
HMEC-1 cells = experiment: NO production and eNOS activation in HMEC-1 cells; type: cell-based, human; conditions: non-transfected HMEC-1 cells
Experimental: FIG. 14. Phosphorylation of eNOS at Ser1177 and NO production increased in HMEC-1 cells upon activation with Ca+2 ionophore A23187 (A) representative western blot of p-eNOS-Ser1177) and β-actin with and without addition of A23187.(B) Quantitative measure of p-eNOS-(Ser1177) treated with and without A23187 (P=0.03, n=6). (C) NO production as measured using DAF2-DA (5 uM) increased upon addition of A23187 (n=4, P=0.02).
FIG. 15. […] Cells exposed to L-NAME were incubated with L-NAME for 2 hours followed by a 15-minute incubation with DAF2-DA (5 uM) prior to measurement of fluorescence intensity.
Cells in Culture: To measure nitric oxide (NO) bioavailability in HMEC-1 cells and arterioles, a fluorescent NO marker, 4,5-diaminofluorescein diacetate (DAF2-DA from Cayman Chemical) was used. […] Fluorescence intensity was measured using a SPECTRAFluor Plus plate reader (Tecan, Morrisville, NC) using excitation and emission wavelengths of 485 nm and 535 nm, respectively. […] The arterioles were then washed with PBS buffer, mounted on a slide, and imaged by fluorescence microscopy. Untreated and unstained arterioles were used as controls for fluorescence background interference. Both treated and control vessels were measured using the same gain settings and the results were analyzed using Meta Morph 7.8 software (Universal imaging, West Chester, PA).

cardiac myocytes = conditions: rat model of T2DM (OLEFT), cited from earlier work
[1] = test system: vessels from T2DM subjects; experiment: Endothelium-dependent vasodilation to acetylcholine, resistance vessels from T2DM subjects; set-up: species or system human; conditions: for impaired endothelium-dependent vasodilation to acetylcholine: 5 mM glucose, 1 or 10 μM peptide
Description: (§1) Human Resistance Artery Acquisition: Human resistance arteries from adipose samples were obtained from the upper outer quadrant of the gluteal adipose pad as previously described.^2,8,13,15,16 Briefly, following sterilization and anesthesia with 1% lidocaine, a 1-1.5 cm incision is made in the upper outer quadrant of the gluteal adipose pad. An approximately 8 cm^3 volume of adipose tissue was removed by sharp dissection. After achieving hemostasis, the wounds were closed with 1-2 absorbable deep dermal sutures and the epidermal layer closed using either Dermabond or steristrips.
(§2) Transfection of human resistance arteries with siRNA constructs was performed as previously described.^8,13 Briefly, resistance arteries dissected from adipose tissue were suspended in a culture myograph chamber (204 CM, DMT, Ann Arbor). One end of the vessel was sutured onto a glass pipette within a micro-organ chamber. Prior to suturing the second end of the arteriole to a glass pipette, Fis1 siRNA, Drp1 siRNA (20 nM in optiMEM using Lipofectamine RNAiMax, Invitrogen) or control scrambled siRNA (20 nM) were gently injected, into the vessel lumen. The loose end of the vessel is then tied onto another glass pipette, and the vessel is suspended in the chamber and placed on a myograph stage bathed in physiological buffer at 37° C. and pressurized to 60 mmHg. Following 4-6 hours of incubation, the siRNA is slowly washed out of the lumen over 24 hours at a low shear rate (□<5 dyn/cm^2).
(§3) Measurement of Endothelium-Dependent Vasoactivity: Transfected resistance arteries from healthy individuals were exposed to either normal glucose conditions (NG, glucose level 5 mM), 2 hours of low glucose (LG, glucose level 2.5 mM) or 6 hours of high glucose (HG, glucose level 33 mM). All studies in vessels from patients with T2DM were performed at 5 mM glucose. Vessels were pre-constricted approximately 50% of resting diameter with endothelin-1 (Sigma Aldrich, USA). The constricted arterioles are then exposed to acetylcholine (Ach) at serially increasing doses from 10^−10 to 10^−5 M, and changes in vessel diameter were measured using digital calipers and videomicroscopy. Following the 10^−5 M dose, vessels were exposed to 200 μM papaverine to test the smooth muscle reactivity. Following a 30-minute washout period, the same arterioles were re-constricted and incubated with L-NG-nitroarginine methyl ester (L-NAME, 100 μM), a direct inhibitor of nitric oxide synthase, for 30 minutes and vasodilation subsequently was remeasured following the exposure to Ach 10^−10 to 10^−5 M.

[2] = test system: human resistance arteries; experiment: Endothelium-dependent vasodilation to acetylcholine, resistance arteries from healthy subjects exposed to high or low glucose; conditions: for impaired endothelium-dependent vasodilation to acetylcholine: high glucose 33 mM six hours, 1-10 μM peptide
Description: as §1, §2, §3

[3] = test system: human resistance arteries; experiment: NO bioavailability (DAF2-DA fluorescence) in human resistance arteries; conditions: healthy vessels, HG and LG
Experimental: Cells in Culture: To measure nitric oxide (NO) bioavailability in HMEC-1 cells and arterioles, a fluorescent NO marker, 4,5-diaminofluorescein diacetate (DAF2-DA from Cayman Chemical) was used. In a dark room, cells were incubated with or without 100 μM L-NAME for 2 hours followed by 15 minutes of incubation with DAF2-DA (5 μM) at 37° C. Fluorescence intensity was measured using a SPECTRAFluor Plus plate reader (Tecan, Morrisville, NC) using excitation and emission wavelengths of 485 nm and 535 nm, respectively. Human Resistance Arteries: Two vessels were obtained from a subset of healthy subjects and each vessel was cut in half to allow for four experimental conditions which included transfection with Fis1 siRNA or Drp1 siRNA with and without concomitant exposure to L-NAME for 30 minutes and transfection with scrambled siRNA control with and without concomitant exposure to L-NAME at room temperature. […] The arterioles were then washed with PBS buffer, mounted on a slide, and imaged by fluorescence microscopy. Untreated and unstained arterioles were used as controls for fluorescence background interference. Both treated and control vessels were measured using the same gain settings and the results were analyzed using Meta Morph 7.8 software (Universal imaging, West Chester, PA).

ApoE knockout mice = conditions: cited from earlier work
[4] = test system: aortic endothelium of diabetic mice; conditions: cited from earlier work
[5] = test system: resistance arterioles from healthy humans over-expressing Fis1 in the endothelium; experiment: Endothelium-dependent vasodilation in resistance arterioles over-expressing Fis1; set-up: species or system human; conditions: 1 μM peptide, one hour of exposure
Experimental: FIG. 19. Pep213 can reverse impaired endothelium-dependnet vasodilation in resistance arterioles. One hour of exposure to pep213 attached to a tat sequence to improve cell penetration (1 μM pep213-tat) reverses impaired endothelium-dependent vasodilation in resistance arterioles from healthy humans over-expressing Fis1 in the endothelium (overexpression of human Fis1 achieved using lentiviral vector to transfect the vessel with a plasmid for endothelial-specific over-expression of human Fis1). 1 μM of a scrambled peptide using the same amino acids as pep213 in a random order has no effect on endothelium dependent vasodilation to acetylcholine. Pep213-tat induce improves endothelium-dependent vasodilation in an eNOS-dependent manner (as determined by the loss in acetylcholine induced endothelium-dependent vasodilation with the use of eNOS inhibitor L-NAME). N=5, P<0.001 overall. *P<0.05 at the indicated doses of acetylcholine. Ach-acetylcholine.
Further the peptide of the present invention, e.g., Pep213, can reverse impaired endothelium-dependent vasodilation in resistance arterioles. […] Pep213-tat induce improves endothelium-dependent vasodilation in an eNOS-dependent manner (as determined by the loss in acetylcholine induced endothelium-dependent vasodilation with the use of eNOS inhibitor L-NAME). […]

[6] = test system: human microvascular endothelial cells (HMVEC); experiment: NO bioavailability (DAF2-DA) in endothelial cells treated with peptide; type: cell-based; conditions: 1 μM peptide, one hour, 37° C.
Experimental: FIG. 17. The bioavailability of nitric oxide (NO) increased in human microvascular endothelial cells (HMVEC) treated with novel peptide pep213. HMVEC cells were treated with 1 μM pep213-tat for one hour at 37° C. and NO was measured with diaminofluorescein-2 diacetate (DAF2-DA) staining. N=3,* P=0.04.
Cells in Culture: To measure nitric oxide (NO) bioavailability in HMEC-1 cells and arterioles, a fluorescent NO marker, 4,5-diaminofluorescein diacetate (DAF2-DA from Cayman Chemical) was used. In a dark room, cells were incubated with or without 100 μM L-NAME for 2 hours followed by 15 minutes of incubation with DAF2-DA (5 μM) at 37° C. Fluorescence intensity was measured using a SPECTRAFluor Plus plate reader (Tecan, Morrisville, NC) using excitation and emission wavelengths of 485 nm and 535 nm, respectively. […] The arterioles were then washed with PBS buffer, mounted on a slide, and imaged by fluorescence microscopy. Untreated and unstained arterioles were used as controls for fluorescence background interference. Both treated and control vessels were measured using the same gain settings and the results were analyzed using Meta Morph 7.8 software (Universal imaging, West Chester, PA).

Compound: CNc1ccc2oc(C[C@H]3O[C@@]4(CC[C@H]3C)O[C@H]([C@H](C)C(=O)c3ccc[nH]3)[C@H](C)C[C@H]4C)nc2c1C(=O)O [A23187]
- NO production (DAF2-DA fluorescence intensity) (HMEC-1 cells): significant increase; also recorded: increased
- eNOS phosphorylation at Ser1177 (HMEC-1 cells): significant increase; also recorded: increased

Compound: OC[C@H]1O[C@@H](c2ccc(Cl)c(Cc3ccc(O[C@H]4CCOC4)cc3)c2)[C@H](O)[C@@H](O)[C@@H]1O [Empagliflozin]
- mitochondrial superoxide dismutase, SOD2 (cardiac myocytes; cardiac myocytes): up-regulated
- Fis1 over-expression (cardiac myocytes): reduced
- mitochondrial fission (cardiac myocytes): reduced

Compound: COC(=O)[C@@H](N)CCCNC(=N)N[N+](=O)[O-] [L-NAME, L-NG-nitroarginine methyl ester]
- effect of L-NAME on improvement seen with pep213-TAT ([1]; T2DM vessels, L-NAME 100 μM): abolished the improvements
- effect of L-NAME on favorable effect of Fis1 siRNA ([1]; vessels from diabetic subjects): completely attenuated
- effect of L-NAME on protective effect of Fis1 siRNA ([2]; healthy vessels, HG and LG): completely blocked
- effect of L-NAME on improvement seen with pep213-tat ([2]; healthy vessels, high glucose, L-NAME 100 μM): abolished the improvements; also recorded: reversed all improvements
- effect of L-NAME on Fis1 siRNA increase in DAF2-DA fluorescence [3]: completely abolished

Compound: CN(C)C(=N)N=C(N)N [Metformin]
- atherosclerotic formation (ApoE knockout mice): reduces

Compound: N#C[C@@H]1CCCN1C(=O)CNC12CC3CC(CC(O)(C3)C1)C2 [vildagliptin]
- NO production ([4]; aortic endothelium of diabetic mice): increasing
- Drp1 translocation from the cytosol ([4]; diabetic mice): reduces
- ROS production ([4]; diabetic mice): reduces
- expression of Fis1 and Drp1 ([4]; diabetic mice): reduces
- mitochondrial fission ([4]; diabetic mice): reduces

Compound: YGRKKRRQRRRGSGSGSSHKHDPLPYPHFLL (Synthetic - Pep213 fused to TAT (pep213-TAT))
- impaired endothelium-dependent vasodilation to acetylcholine ([1]; T2DM vessels): reverses
- impaired endothelium-dependent vasodilation to acetylcholine ([1]; T2DM vessels, listed as Pep213-tat): reversed
- impaired endothelium-dependent vasodilation to acetylcholine ([1]; T2DM vessels, listed as Tat sequence-linked pep213): improved
- impaired endothelium-dependent vasodilation to acetylcholine ([1]; T2DM vessels, listed as pep213-TAT): significant improvement
- papaverine response (smooth muscle reactivity) ([2]; 200 μM papaverine, healthy and T2DM vessels): did not impact
- impaired endothelium-dependent vasodilation to acetylcholine ([2]; healthy vessels): reversed
- impaired endothelium-dependent vasodilation to acetylcholine ([2]; healthy vessels, listed as Pep213-tat): reversed
- impaired endothelium-dependent vasodilation to acetylcholine ([2]; healthy vessels, listed as Tat sequence-linked pep213): improved
- impaired endothelium-dependent vasodilation to acetylcholine ([2]; healthy vessels, listed as pep213-TAT): significant improvement
- impaired endothelium-dependent vasodilation to acetylcholine [5]: reverses
- NO bioavailability (DAF2-DA fluorescence) [6]: increased
- NO bioavailability (DAF2-DA fluorescence) ([6]; listed as pep213-TAT): significant increase
